Measured values published in patent US11958880B2, “Means and methods for site-specific functionalization of polypeptides” (LUDWIG-MAXIMILIANS-UNIVERSITÄT MÜNCHEN, priority 2014, dated 2024).

Experiments:
Type in all cases: biochemical
[1] = biological target: T1, tubulin tyrosine ligase (TTL) (Canis lupus familiaris, UniProt A0A8I3N5B1); test: TTL reaction on GBP4 followed by tryptic digest and HPLC-MS/MS; settings: 1 mM tyrosine derivative, 1 μM TTL, 5 μM nanobody, 37° C., 24 h
T1 construct: His-Tag (N); SUMO3 (Sumo) (N); made in house; host or cells: E. coli BL21(DE3)
T1 sequence (A0A8I3N5B1 1-377): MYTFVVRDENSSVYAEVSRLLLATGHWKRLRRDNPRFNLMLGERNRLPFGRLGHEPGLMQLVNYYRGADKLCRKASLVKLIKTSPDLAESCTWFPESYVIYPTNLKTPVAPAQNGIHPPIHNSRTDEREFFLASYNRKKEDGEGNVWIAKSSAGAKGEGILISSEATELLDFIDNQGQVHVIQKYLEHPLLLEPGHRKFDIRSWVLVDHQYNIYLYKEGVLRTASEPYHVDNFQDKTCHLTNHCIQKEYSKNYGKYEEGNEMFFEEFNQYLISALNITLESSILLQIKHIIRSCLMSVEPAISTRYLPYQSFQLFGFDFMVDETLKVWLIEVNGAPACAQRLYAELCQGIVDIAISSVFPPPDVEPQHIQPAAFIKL
Experimental: Nanobodies were tyrosinated as described in Example 8. Proteins were separated by SDS-PAGE. Protein bands of interest were excised, soaked with 100 μL 50 mM (NH4)2CO3/ACN 1:1 and incubated at 30° C. for 10 min. The supernatant was removed and the gel pieces were incubated in 50 mM (NH4)2CO3 at 30° C. for further 10 min. The two incubation steps were repeated until the pieces were colorless. Hereafter, the gel pieces were dehydrated by the addition of 25 μL ACN, the supernatant removed and the gels were dried under reduced pressure. In-gel digest was performed in a total volume of 20 μL 50 mM (NH4)2CO3 at 37° C. for 12 h using 0.05 μg Trypsin. 20 μL ACN+0.5% TFA were added, the mixture was incubated in an ultrasonic bath, the supernatant transferred to LC glass vials, the solvent was removed under reduced pressure and the residual peptides resuspended in 6 μL 95% H2O+0.1% TFA, 5% ACN+0.1% TFA solution. Peptides were separated by HPLC and analysed by MSMS experiments.
Tyrosination reactions were performed in a 50 μL solution consisting of 20 mM MES/K pH 7.0, 100 mM KCl, 10 mM MgCl2, 2.5 mM ATP, 1 mM tyrosine derivative, 1 μM TTL, 5 μM nanobody and 5 mM reduced glutathione in case of compound 3 and 5 mM DTT in case of compound 1, 2, 9 and tyrosine (6), respectively. The mixture was incubated at 37° C. for 24 h. Proteins were separated by SDS-PAGE. Protein bands of interest were excised, soaked with 100 μL 50 mM (NH4)2CO3/ACN 1:1 and incubated at 30° C. for 10 min. The supernatant was removed and the gel pieces were incubated in 50 mM (NH4)2CO3 at 30° C. for further 10 min. The two incubation steps were repeated until the pieces were colourless. Hereafter, the gel pieces were dehydrated by the addition of 25 μL ACN, the supernatant removed and the gels were dried under reduced pressure. In-gel digest was performed in a total volume of 20 μL 50 mM (NH4)2CO3 at 37° C. for 12 h using 0.05 μg trypsin (Thermo Fisher Scientific, USA). 20 μL ACN+0.5% TFA was added, the mixture incubated in an ultrasonic bath, the supernatant transferred to LC glass vials, the solvent removed under reduced pressure and the residual peptides resuspended in 6 μL 95% H2O+0.1% TFA, 5% ACN+0.1% TFA solution. Peptides were separated by HPLC and analyzed by MSMS experiments.

[2] = biological target: T1, tubulin tyrosine ligase (TTL); test: TTL tyrosination of carboxyfluorescein-labeled Tub-tag peptide (CF-Tub-tag), isocratic HPLC-fluorescence; settings: TTL:peptide 1:200, after 120 min of incubation at 37° C.
Experimental: Tyrosination reactions were performed in a 250 μL solution consisting of 20 mM MES/K pH 7.0, 100 mM KCl, 10 mM MgCl2, 2.5 mM ATP, 1 mM tyrosine derivative, 0.2 mM peptide, 1 μM TTL and 5 mM DTT in case of compound 1, 2, 4 and 5 or 5 mM reduced glutathione in case of compound 3, respectively. The mixture was incubated at 37° C. and several aliquots (25 μL) were taken within 24 h, mixed with equal volumes of H2O+0.1% TFA and subjected either to isocratic analytical HPLC equipped with a fluorescence detector (Method A) or analytical UPLC-MS analysis. Quantities of substrate and product peptides were estimated from the corresponding peak-area in the fluorescence or UV detection spectrum (Ex/Em: 495/517).
Tyrosination reactions were performed in a 250 μL solution consisting of 20 mM MES/K pH 7.0, 100 mM KCl, 10 mM MgCl2, 2.5 mM ATP, 1 mM tyrosine derivative, 0.2 mM CF-Tub-tag 13, 1 μM TTL and 5 mM DTT in case of compound 2 or 5 mM reduced glutathione in case of compound 1, respectively. The mixture was incubated at 37° C. and several aliquots (25 μL) were taken, mixed with equal volumes of H2O+0.1% TFA and subjected to isocratic analytical HPLC equipped with a fluorescence detector (Method: A=H2O+0.1% TFA, B=MeCN+0.1% TFA; 35% B, 0-15 min, 10-100% B 15-17 min, 100% B 17-22 min, 100-35% B 22-25 min and 35% B 25-30 min.). […]

[3] = biological target: T1, tubulin tyrosine ligase (TTL); test: TTL-mediated incorporation of tyrosine derivative to the C-terminus of GBP4 followed by SPAAC to DBCO-biotin (SDS-PAGE/western blot); settings: for GBP4 converted (C-terminally modified GBP4): one hour; for GBP4 conversion: three hours
Experimental: Tyrosination reactions were performed in a 150 μL solution consisting of 20 mM MES/K pH 7.0, 100 mM KCl, 10 mM MgCl2, 2.5 mM ATP, 1 mM tyrosine derivative, 0.1-1 μM TTL, 5 μM nanobody and 5 mM reduced glutathione in case of compounds containing azides or 5 mM DTT for all other derivatives, respectively. The mixture was incubated at 37° C. for 1-3 h.
Tyrosination reactions were performed as described in Example 16 using compound 3, 5 mM reduced glutathione and a ratio of 10:1 GBP4/TTL for 3 h. The reaction mixtures were rebuffered to Dulbecco's PBS pH 7.4 and incubated with 30 eq. of Sulfo-Cy5-DBCO (Jena Bioscience GmbH, Germany) or DBCO-PEG4-biotin (Jena Bioscience GmbH, Germany) at 30° C. for 4 h. Proteins were separated by SDS-PAGE. Biotinylated nanobodies were wet blotted onto a nitrocellulose membrane using a Bio-Rad Mini-Protean Tetra System (250 mA, one hour). A streptavidin peroxidase conjugate (Merck Millipore, Germany) was used for detection. Fluorescently labeled nanobodies were visualized by a Fuji FLA-5000 laser imager (634 nm excitation, LPG-filter) (Fujifilm, Japan).

| Compound | C-terminal addition to GBP4 shown by HPLC-MS/MS [1] | conjugate yield [2] [%] | GBP4 converted (C-terminally modified GBP4) ([3]; ratio 1:5 TTL/GBP4, 37° C.) [%] | GBP4 conversion ([3]; ratio 1:5 TTL/GBP4, 37° C.) [%] | GBP4 converted (C-terminally modified GBP4) ([3]; ratio 1:10 TTL/GBP4, 37° C.) [%] | GBP4 conversion ([3]; ratio 1:10 TTL/GBP4, 37° C.) [%] |
| --- | --- | --- | --- | --- | --- | --- |
| N[C@@H](Cc1ccc(O)c(C=O)c1)C(=O)O [compound 1, 3-formyl-L-tyrosine] | successful C-terminal addition | 63 |  |  |  |  |
| N[C@@H](Cc1ccc(O)c([N+](=O)[O-])c1)C(=O)O [compound 2, 3-nitro-L-tyrosine] | successful C-terminal addition |  |  |  |  |  |
| [N-]=[N+]=Nc1cc(C[C@H](N)C(=O)O)ccc1O [compound 3, 3-azido-L-tyrosine] | successful C-terminal addition | 80 | 82 | 99 | 71 | 88 |

The next lines start with the values.

| C-terminal addition to GBP4 shown by HPLC-MS/MS [1] | conjugate yield [2] [%] | GBP4 converted (C-terminally modified GBP4) ([3]; ratio 1:5 TTL/GBP4, 37° C.) [%] | GBP4 conversion ([3]; ratio 1:5 TTL/GBP4, 37° C.) [%] | GBP4 converted (C-terminally modified GBP4) ([3]; ratio 1:10 TTL/GBP4, 37° C.) [%] | GBP4 conversion ([3]; ratio 1:10 TTL/GBP4, 37° C.) [%] | Compound |
| --- | --- | --- | --- | --- | --- | --- |
| successful C-terminal addition |  |  |  |  |  | Nc1cc(C[C@H](N)C(=O)O)ccc1O [compound 9, 3-amino-L-tyrosine] |
| successful C-terminal addition |  |  |  |  |  | N[C@@H](Cc1ccc(O)cc1)C(=O)O [compound 6, L-tyrosine, reference compound] |
